Experimental data taken from patent US5250683A, “Certain substituted taxanes and pharmaceutical compositions containing them” (Florida State University, priority 1992, dated 1993).

Each molecule was assayed on tubulin (assay: Tubulin binding assay (Tubulin Assay), method of Parness et al.). Conditions: compared to taxol and taxotere.
In the case of `CC(=O)O[C@H]1C(=O)[C@@]2(C)[C@H]([C@H](OC(=O)c3ccccc3)[C@]3(O)C[C@H](OC(=O)[C@H](O)[C@@H](NC(=O)c4ccccc4)c4ccc5c(c4)OCO5)C(C)=C1C3(C)C)[C@]1(OC(C)=O)CO[C@@H]1C[C@@H]2O` [Example 6, 3'-desphenyl-3'-(3,4-methylenedioxyphenyl) taxol], the “Tubulin Assay Init. Peak” value is reported as 53 and the “Tubulin Assay Rel. Rate” value is reported as 85.
With `CC(=O)O[C@H]1C(=O)[C@@]2(C)[C@H]([C@H](OC(=O)c3ccccc3)[C@]3(O)C[C@H](OC(=O)[C@H](O)[C@@H](NC(=O)c4ccccc4)c4cccc5ccccc45)C(C)=C1C3(C)C)[C@]1(OC(C)=O)CO[C@@H]1C[C@@H]2O` [Example 1, 3'-desphenyl-3'-(1-naphthyl) taxol] the “Tubulin Assay Init. Peak” value was 0 and the “Tubulin Assay Rel. Rate” value was 0.
In the case of `COc1ccc([C@H](NC(=O)c2ccccc2)[C@@H](O)C(=O)O[C@H]2C[C@@]3(O)[C@@H](OC(=O)c4ccccc4)[C@@H]4[C@]5(OC(C)=O)CO[C@@H]5C[C@H](O)[C@@]4(C)C(=O)[C@H](OC(C)=O)C(=C2C)C3(C)C)cc1OC` [Example 7, 3'-desphenyl-3'-(3,4-dimethoxyphenyl) taxol], the “Tubulin Assay Init. Peak” value is reported as 11 and the “Tubulin Assay Rel. Rate” value is reported as 26.
`CC(=O)O[C@H]1C(=O)[C@@]2(C)[C@H]([C@H](OC(=O)c3ccccc3)[C@]3(O)C[C@H](OC(=O)[C@H](O)[C@@H](NC(=O)c4ccc(F)cc4)c4ccc(F)cc4)C(C)=C1C3(C)C)[C@]1(OC(C)=O)CO[C@@H]1C[C@@H]2O` [Example 15, N-debenzoyl-N-(4-fluorobenzoyl)-3'-desphenyl-3'-(4-fluorophenyl) taxol] was tested, and the “Tubulin Assay Init. Peak” value was 89 and the “Tubulin Assay Rel. Rate” value was 98.
With `CC(=O)O[C@H]1C(=O)[C@@]2(C)[C@H]([C@H](OC(=O)c3ccccc3)[C@]3(O)C[C@H](OC(=O)[C@H](O)[C@@H](NC(=O)c4ccccc4)c4ccc([N+](=O)[O-])cc4)C(C)=C1C3(C)C)[C@]1(OC(C)=O)CO[C@@H]1C[C@@H]2O` [Example 8, 3'-desphenyl-3'-(4-nitrophenyl) taxol] the “Tubulin Assay Init. Peak” value was 114 and the “Tubulin Assay Rel. Rate” value was 105.
For `COc1ccc([C@H](NC(=O)c2ccc(F)cc2)[C@@H](O)C(=O)O[C@H]2C[C@@]3(O)[C@@H](OC(=O)c4ccccc4)[C@@H]4[C@]5(OC(C)=O)CO[C@@H]5C[C@H](O)[C@@]4(C)C(=O)[C@H](OC(C)=O)C(=C2C)C3(C)C)cc1` [Example 21, N-debenzoyl-N-(4-fluorobenzoyl)-3'-desphenyl-3'-(4-methoxyphenyl) taxol], the “Tubulin Assay Init. Peak” value was 45 and the “Tubulin Assay Rel. Rate” value was 81.
`CC(=O)O[C@H]1C(=O)[C@@]2(C)[C@H]([C@H](OC(=O)c3ccccc3)[C@]3(O)C[C@H](OC(=O)[C@H](O)[C@@H](NC(=O)c4ccc(Br)cc4)c4ccccc4)C(C)=C1C3(C)C)[C@]1(OC(C)=O)CO[C@@H]1C[C@@H]2O` [Example 11, N-debenzoyl-N-(4-bromobenzoyl) taxol] was tested, and the “Tubulin Assay Init. Peak” value was 67 and the “Tubulin Assay Rel. Rate” value was 88.
For `CC(=O)O[C@H]1C(=O)[C@@]2(C)[C@H]([C@H](OC(=O)c3ccccc3)[C@]3(O)C[C@H](OC(=O)[C@H](O)[C@@H](NC(=O)c4ccccc4)c4ccc(Br)cc4)C(C)=C1C3(C)C)[C@]1(OC(C)=O)CO[C@@H]1C[C@@H]2O` [Example 5, 3'-desphenyl-3'-(4-bromophenyl) taxol], the “Tubulin Assay Init. Peak” value was 5 and the “Tubulin Assay Rel. Rate” value was 74.
`CC(=O)O[C@H]1C(=O)[C@@]2(C)[C@H]([C@H](OC(=O)c3ccccc3)[C@]3(O)C[C@H](OC(=O)[C@H](O)[C@@H](NC(=O)c4ccc(Cl)cc4)c4ccc(Cl)cc4)C(C)=C1C3(C)C)[C@]1(OC(C)=O)CO[C@@H]1C[C@@H]2O` [Example 24, N-debenzoyl-N-(4-chlorobenzoyl)-3'-desphenyl-3'-(4-chlorophenyl) taxol] was tested, and the “Tubulin Assay Init. Peak” value was 35 and the “Tubulin Assay Rel. Rate” value was 60.
